Tests used:
[1] = test system: TGF-β-induced α-SMA expression in WI-38 cells; assay: TGF-β-induced α-SMA expression in WI-38 cells (Western blot); assay type: cell-based, human; conditions: WI-38 lung fibroblasts, 0.3, 1, 3 or 10 μM for 30 min before and during incubation with TGF-β (10 ng/mL)
Protocol: (§1) FIGS. 5 (A) and (B) show the effect of L056 on TGF-β-induced α-SMA expression in WI-38 cells. WI-38 lung fibroblasts were incubated with different concentrations of L056 (0.3, 1, 3 or 10 μM) for 30 min before and during incubation for 2 h with TGF-β (10 ng/mL). […] (A), Western blot plot; (B), Quantitative assay of Western blot WI-38 cells, a normal human embryonic lung fibroblast cell line, were obtained from American Type Culture Collection (Manassas, VA). Cells were grown in MEM nutrient mixture, containing 10% FCS, 2 mM L-glutamine, 0.1 mM NEAA, 1 mM sodium pyruvate, 50 U/ml penicillin G, and 100 µg/ml streptomycin, in a humidified 37° C. incubator with 5% CO2 Cells were used between passages 18 and 30 for all experiments. After reaching confluence, cells were seeded onto 6-cm dishes for immunoblotting. Western blot analyses were performed as described previously (Chen B C, Chang Y S, Kang J C, Hsu M J, Sheu J R, Chen T L, et al. Peptidoglycan induces nuclear factor-kappaB activation and cyclooxygenase-2 expression via Ras, Raf-1, and ERK in RAW 264.7 macrophages. J Biol Chem 2004; 279:20889-97). […] The immunoreactivity was detected using enhanced chemiluminescence (ECL) following the manufacturer's instructions. Quantitative data were obtained using a computing densitometer with scientific imaging systems (Kodak, Rochester, NY). […]

[2] = test system: TGF-β-induced fibronectin expression in WI-38 cells; assay: TGF-β-induced fibronectin expression in WI-38 cells (Western blot, immunofluorescence); assay type: cell-based, human; conditions: WI-38 lung fibroblasts, 0.3, 1, 3 or 10 μM for 30 min before and during incubation with TGF-β (10 ng/mL)
Protocol: as §1, with “FIGS. 6 (A), (B) and (C)” for “FIGS. 5 (A) and (B)”, “(B) and (C) show the” for “(A) and (B) show the”, “on TGF-β-induced fibronectin expression in” for “on TGF-β-induced α-SMA expression in”, “of Western blot; (C), Immunofluorescence plot. WI-38 cells,” for “of Western blot WI-38 cells,”

O=C(Nc1ccncc1)c1ccc(CNC2=C(Cl)C(=O)c3ccccc3C2=O)cc1 [Example L056, 4-(((3-chloro-1,4-dioxo-1,4-dihydronaphthalen-2-yl)amino)methyl)-N-(pyridin-4-yl)benzamide]
TGF-β-induced α-SMA expression [1]: significantly inhibited | TGF-β-induced fibronectin expression [2]: significantly inhibited

From patent publication US12453708B2, “Aminonaphthoquinone compounds for treatment and/or prevention of fibrosis diseases” (CALGENT BIOTECHNOLOGY CO., LTD., priority 2015, dated 2025)
